The source of these data is US20040204409A1, “Bicyclic compounds as NR2B receptor antagonists” (priority 2003, published 2004).

As usually defined, the Ki is a measure of affinity in units of concentration, obtained from inhibition or displacement.

The test addresses T1, NR2B receptor (Rattus norvegicus, UniProt P35439+Q00960).
T1 construct: Membranes were prepared by homogenization of forebrain of male CD rats; from tissue; host or cells: rat forebrain P2 membrane
In words: NR2B Binding Assay (competition with [3H]-1-[(1S*,2S*)-2-hydroxy-2-(4-hydroxyphenyl)-1-methylethyl]-4-phenylpiperidin-4-ol on P2 membrane). The following applies: forebrain P2 membrane of male CD rats, 5 nM radioligand, 60 minutes at room temperature, pH7.4; read-out: Ki value with respect to binding affinity for the NR2B receptor. On the procedure: The activity of the bicyclic amide compounds of the present invention, as NR2B antagonists, is determined by their ability to inhibit the binding of NR2B subunit at its receptor sites employing radioactive ligands.
The NR2B antagonist activity of the bicyclic amide compounds is evaluated by using the standard assay procedure described in, for example, J. Pharmacol., 331, pp117-126, 1997. This method essentially involves determining the concentration of the individual compound required to reduce the amount of radiolabelled NR2B ligands by 50% at their receptor sites, thereby affording characteristic IC50 values for each compound tested. More specifically, the assay is carried out as follows. […]
For the saturation assay, receptor saturation was determined by incubating [^3H]-1-[(1S*,2S*)-2-hydroxy-2-(4-hydroxyphenyl)-1-methylethyl]-4-phenylpiperidin-4-ol and 50 μg protein of P2 membrane for 60 minutes at room temperature in a final 100 μl of incubation buffer (50 mM Tris HCl, pH7.4). Total and non-specific bindings (in the presence of 10 μM of unlabeled 1-[(1S*,2S*)-2-hydroxy-2-(4-hydroxyphenyl)-1-methylethyl]-4-phenylpiperidin-4-ol) were determined in a range of [3H]-1-[(1S*,2S*)-2-hydroxy-2-(4-hydroxyphenyl)-1-methylethyl]-4-phenylpiperidin-4-ol concentrations (0.625 nM to 60 nM). […]

T1 sequence (Q00960 27-1482, other chains not shown): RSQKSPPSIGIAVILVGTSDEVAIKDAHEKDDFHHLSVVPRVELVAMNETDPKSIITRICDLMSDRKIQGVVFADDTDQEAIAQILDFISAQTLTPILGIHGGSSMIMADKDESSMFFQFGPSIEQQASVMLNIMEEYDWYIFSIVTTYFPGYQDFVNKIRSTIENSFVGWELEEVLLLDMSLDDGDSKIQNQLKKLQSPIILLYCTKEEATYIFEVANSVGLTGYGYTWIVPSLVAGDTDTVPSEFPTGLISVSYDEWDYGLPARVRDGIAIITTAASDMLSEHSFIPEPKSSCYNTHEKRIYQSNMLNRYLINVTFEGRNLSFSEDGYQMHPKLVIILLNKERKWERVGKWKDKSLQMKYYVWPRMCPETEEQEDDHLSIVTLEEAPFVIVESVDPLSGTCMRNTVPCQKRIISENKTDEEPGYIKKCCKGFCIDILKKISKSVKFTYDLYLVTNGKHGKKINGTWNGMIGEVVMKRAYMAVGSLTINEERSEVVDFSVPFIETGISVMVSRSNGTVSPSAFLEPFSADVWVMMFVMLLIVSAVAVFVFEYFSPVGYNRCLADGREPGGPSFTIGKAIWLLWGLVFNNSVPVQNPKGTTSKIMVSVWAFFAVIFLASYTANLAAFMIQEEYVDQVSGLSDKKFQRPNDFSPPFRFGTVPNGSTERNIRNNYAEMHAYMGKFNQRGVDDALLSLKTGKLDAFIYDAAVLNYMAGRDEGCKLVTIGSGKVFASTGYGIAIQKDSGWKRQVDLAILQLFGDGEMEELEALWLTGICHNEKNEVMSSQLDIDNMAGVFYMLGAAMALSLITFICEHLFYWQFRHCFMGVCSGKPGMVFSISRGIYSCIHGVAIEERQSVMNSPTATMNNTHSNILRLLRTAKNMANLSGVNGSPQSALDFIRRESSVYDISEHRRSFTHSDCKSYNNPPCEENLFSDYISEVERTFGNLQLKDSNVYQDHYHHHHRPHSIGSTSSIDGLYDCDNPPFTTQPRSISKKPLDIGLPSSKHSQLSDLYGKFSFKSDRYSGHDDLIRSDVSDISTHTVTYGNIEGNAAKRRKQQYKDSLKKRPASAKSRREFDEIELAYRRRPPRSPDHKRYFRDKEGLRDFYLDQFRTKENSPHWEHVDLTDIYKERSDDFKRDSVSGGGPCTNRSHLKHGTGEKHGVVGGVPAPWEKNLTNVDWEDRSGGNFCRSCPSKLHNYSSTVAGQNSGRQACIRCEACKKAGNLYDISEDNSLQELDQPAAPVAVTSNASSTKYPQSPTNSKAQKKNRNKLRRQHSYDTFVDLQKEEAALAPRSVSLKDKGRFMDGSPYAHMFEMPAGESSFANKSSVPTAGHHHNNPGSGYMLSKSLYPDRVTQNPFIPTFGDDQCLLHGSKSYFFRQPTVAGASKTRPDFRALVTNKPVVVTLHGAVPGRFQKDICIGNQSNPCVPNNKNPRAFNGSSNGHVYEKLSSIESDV

For the molecule `O=C(NCc1ccc2[nH]c(Cc3ccccc3)cc2c1)c1ccc(O)cc1` [Example 8, N-[(2-benzyl-1H-indol-5-yl)methyl]-4-hydroxybenzamide], the Ki was determined as 2 nM.
